Publication PMC3124400 (International Journal of Nanomedicine, 2011)

Assays:
[1] = cited from earlier work
[2] = In vitro release by dynamic dialysis method; format: physicochemical; settings: dialysis bag control

Molecule	Increase in oral bioavailability ([1]; fenofibrate in fast-dissolving solid dispersion formulation) [fold]	Enhancement of oral bioavailability ([1]; fenofibrate in liposomes containing sodium deoxycholate) [fold]	Time for complete diffusion of CyA in solution across the dialysis bag [2] [h]
CC(C)OC(=O)C(C)(C)Oc1ccc(C(=O)c2ccc(Cl)cc2)cc1 [fenofibrate]	4.4	5.13	–
Cyclosporine A [CyA]	–	–	≤ 1
